The values below come from patent publication US12605480B2, “Tough gel-based drug delivery compositions and methods thereof” (priority 2019, dated 2026).

SMILES strings stand for the structures. Converted amounts (≈) assume the structure as drawn.

A short description of data set [1]: Solubility of CORT in water and other solutions. The class given is physicochemical. The protocol: The solubility of CORT in various water and other solutions were evaluated over a period of 24 h.
The conditions of data set [2]: cited from earlier work.
The conditions of data set [3]: rat, in vivo; cited from earlier work.

As for `CC1(C)O[C@@H]2C[C@H]3[C@@H]4CCC5=CC(=O)C=C[C@]5(C)[C@@]4(F)[C@@H](O)C[C@]3(C)[C@]2(C(=O)CO)O1` [Triamcinolone acetonide], the solubility at 24 h in data set [1] (DMSO:ddH2O 1:4, aqueous with cosolvent or surfactant or cyclodextrin, DMSO:ddH2O ratio of 1:4) is about 1000 µg/mL; in data set [1] (ddH2O and water-based solutions of 2% alginate and 12% acrylamide, 24 h) it was 10 to 100 µg/mL (≈ 23 to 230 µM). For the same molecule, the solubility in data set [1] (water 37° C., input of the FE model, read-out: maximum solubility sol(water 37° C.) / Csol) is 33 µg/mL (≈ 75.9 µM). The water solubility in data set [2] was 20 µg/mL (≈ 46 µM). Further, the “acute toxicity (oral LD50)” value in data set [3] is on record as 1451 mg/kg.
